Assay results published in patent US20090239841A1, “Diaryl Ureas as CB1 Antagonists” (priority 2004, published 2009).

Molecular target: T1, hCB1 (Homo sapiens, UniProt P21554)
T1 construct: made in house; host or cells: Sf9 insect cells (baculovirus), P2 membranes
Experiment: Agonist-induced GTP binding (GTPγ35S) assay at CB1, Example 8
Assay type: biochemical
Details: Table II; IC50 at CB1, GTP binding with 1 nM CP55,940; read-out: IC50
Source text: As noted above, compounds provided herein are CB1 antagonists. Certain such compounds are non-competitive CB1 antagonists. In addition, or alternatively, certain compounds provided herein display CB1 specificity. CB1 antagonist activity may be confirmed using an agonist-induced GTP binding assay, such as the assay described in Example 8. Such assays employ a CB1-containing cell membrane preparation (e.g., a preparation of membranes of insect cells that recombinantly express CB1) to determine the effect of a test compound on CB1 agonist-induced GTP binding to CB1. Briefly, a first cell membrane preparation comprising CB1 is contacted with: (i) labeled GTP; (ii) a CB1 agonist; and (iii) a test compound to yield a test membrane preparation. Simultaneously, or in either order, a second cell membrane preparation comprising CB1 is contacted with: (i) labeled GTP; and (ii) a CB1 agonist to yield a control membrane preparation. The labeled GTP is preferably GTPγ^35S; a representative CB1 agonist is CP55,940. Such contact is performed under conditions that are suitable for GTP binding to CB1, such as the conditions described in Example 8. The concentrations of labeled GTP and CB1 agonist used are generally concentrations that are sufficient to result in a detectable increase in the amount of labeled GTP bound to the membrane preparation in the presence of CB1 agonist. Such concentrations may be determined by routine experimentation; representative suitable concentrations are provided in Example 8. Generally, a range of test compound concentrations is used (e.g., ranging from 10^−10M to 10^−5M).
After sufficient contact (e.g., incubation) to allow GTP binding to the membrane preparations, a signal that corresponds to (represents) the amount of bound, labeled GTP is detected (typically, unbound labeled GTP is first removed via a washing step). In other words, simultaneously or in either order: (i) a test signal that represents an amount of bound, labeled GTP in the test membrane preparation is detected; and (ii) a control signal that represents an amount of bound, labeled GTP in the control membrane preparation is detected. The nature of the signal detected is determined by the type of label used. For example, if the GTP is radioactively labeled, the signal detected is radioactive decay (e.g., via liquid scintillation spectrometry). The CB1 antagonist activity of the test compound is then determined by comparing the test signal with the control signal.
This assay can also be used to detect partial agonism mediated by antagonist compounds. A compound being analyzed in this assay is referred to herein as a “test compound.” Agonist-stimulated GTP binding activity is measured as follows: Four independent baculoviral stocks (one directing the expression of hCB1 and three directing the expression of each of the three subunits of a heterotrimeric G-protein) are used to infect a culture of Sf9 cells as described in Example 5.
Agonist-stimulated GTP binding on purified membranes (as described in Example 6) is initially assessed using the cannabinoid agonist CP55,940 to ascertain that the receptor/G-protein-alpha-beta-gamma combination(s) yield a functional response as measured by GTP binding.
P2 membranes are resuspended by Dounce homogenization (tight pestle) in GTP binding assay buffer (50 mM Tris pH 7.4, 120 mM NaCl, 5 mM MgCl2, 2 mM EGTA, 0.1% BSA, 0.1 mM bacitracin, 10 KIU/mL aprotinin, 5 μM GDP) and added to reaction tubes at a concentration of 10 μg protein/reaction tube. After adding increasing doses of the agonist CP55,940 at concentrations ranging from 10^−12 M to 10^−6 M, reactions are initiated by the addition of […] GTPγ^35S. In competition experiments, non-radiolabeled test compounds are added to separate assays at concentrations ranging from 10^−10 M to 10^−5 M along with 1 nM CP55,940 to yield a final volume of 0.25 mL. […]

T1 sequence (P21554 whole entry): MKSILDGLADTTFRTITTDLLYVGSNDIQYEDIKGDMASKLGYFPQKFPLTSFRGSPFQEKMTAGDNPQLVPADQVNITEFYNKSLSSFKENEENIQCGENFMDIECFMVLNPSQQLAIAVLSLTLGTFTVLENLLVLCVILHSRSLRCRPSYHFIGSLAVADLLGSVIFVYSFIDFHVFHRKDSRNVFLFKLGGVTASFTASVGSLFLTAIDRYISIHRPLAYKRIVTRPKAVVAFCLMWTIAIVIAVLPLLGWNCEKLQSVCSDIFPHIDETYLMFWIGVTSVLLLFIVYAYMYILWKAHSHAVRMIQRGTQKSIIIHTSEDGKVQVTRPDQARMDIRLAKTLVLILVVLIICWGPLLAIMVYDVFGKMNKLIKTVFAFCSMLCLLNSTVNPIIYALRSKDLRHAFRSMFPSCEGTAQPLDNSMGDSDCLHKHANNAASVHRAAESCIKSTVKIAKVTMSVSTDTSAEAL

SMILES | IC50 [nM]
COc1cc(NC(=O)Nc2ccc(OC(F)F)cc2)ncn1 [Compound 79, N-[4-(difluorornethoxy)phenyl]-N′-(6-methoxypyrimidin-4-yl)urea] | < 2000
O=C(Nc1ccc(OC(F)F)cc1)Nc1ccc2c(c1)CCC2 [Compound 80, N-[4-(difluoromethoxy)phenyl]-N′-(2,3-dihydro-1H-inden-5-yl)urea] | < 2000
O=C(Nc1ccc(OC(F)F)cc1)Nc1ccc(N2CCOCC2)c(Cl)c1 [Compound 81, N-(3-chloro-4-morpholin-4-ylphenyl)-N′-[4-(difluoromethoxy)phenyl]urea] | < 2000
O=C(Nc1ccc(OC(F)F)cc1)Nc1ccc(-n2cnc(Cl)c2Cl)cc1 [Compound 82, N-[4-(4,5-dichloro-1H-imidazol-1-yl)phenyl]-N′-[4-(difluoromethoxy)phenyl]urea] | < 2000
O=C(Nc1ccc(OC(F)F)cc1)Nc1ccc2c(c1)C(=O)CC2 [Compound 83, N-[4-(difluoromethoxy)phenyl]-N′-(3-oxo-2,3-dihydro-1H-inden-5-yl)urea] | < 2000
COc1ccc(NC(=O)Nc2ccc(OC(F)F)cc2)cc1OC1CCCC1 [Compound 84, N-[3-(cyclopentyloxy)-4-methoxyphenyl]-N′-[4-(difluoromethoxy)phenyl]urea] | < 2000
O=C(Nc1ccc(OC(F)F)cc1)Nc1cccc(Oc2ccccc2)c1 [Compound 85, N-[4-(difluoromethoxy)phenyl]-N′-(3-phenoxyphenyl)urea] | < 2000
O=C(Nc1ccc(Oc2ccccc2)cc1)Nc1ccc(OC(F)F)cc1 [Compound 86, N-[4-(difluoromethoxy)phenyl]-N′-(4-phenoxyphenyl)urea] | < 2000
COc1cc(NC(=O)Nc2ccc(OC(F)F)cc2)cc(C(F)(F)F)c1 [Compound 87, N-[4-(difluoromethoxy)phenyl]-N′-[3-methoxy-5-(trifluoromethyl)phenyl]urea] | < 2000
O=C(Nc1ccc(OC(F)F)cc1)Nc1ccc2c(c1)OCCO2 [Compound 88, N-[4-(difluoromethoxy)phenyl]-N′-(2,3-dihydro-1,4-benzodioxin-6-yl)urea] | < 2000
Cc1cc(C)cc(NC(=O)Nc2ccc(OC(F)F)cc2)c1 [Compound 89, N-[4-(difluoromethoxy)phenyl]-N′-(3,5-dimethylphenyl)urea] | < 2000
Cc1ccc(NC(=O)Nc2ccc(OC(F)F)cc2)cc1C [Compound 90, N-[4-(difluoromethoxy)phenyl]-N′-(3,4-dimethylphenyl)urea] | < 2000
COc1cc(NC(=O)Nc2ccc(OC(F)F)cc2)cc(OC)c1 [Compound 91, N-[4-(difluoromethoxy)phenyl]-N′-(3,5-dimethoxyphenyl)urea] | < 2000
COc1ccc(NC(=O)Nc2ccc(OC(F)F)cc2)cc1OC [Compound 92, N-[4-(difluoromethoxy)phenyl]-N′-(3,4-dimethoxyphenyl)urea] | < 2000
O=C(Nc1ccc(OC(F)F)cc1)Nc1cc(Cl)cc(Cl)c1 [Compound 93, N-(3,5-dichlorophenyl)-N′-[4-(difluoromethoxy)phenyl]urea] | < 2000
O=C(Nc1ccc(OC(F)F)cc1)Nc1ccc(Cl)c(Cl)c1 [Compound 94, N-(3,4-dichlorophenyl)-N′-[4-(difluoromethoxy)phenyl]urea] | < 2000
O=C(Nc1ccc(OC(F)F)cc1)Nc1cccc(OC(F)(F)F)c1 [Compound 95, N-[4-(difluoromethoxy)phenyl]-N′-[3-(trifluoromethoxy)phenyl]urea] | < 2000
O=C(Nc1ccc(OC(F)F)cc1)Nc1ccc(OC(F)(F)F)cc1 [Compound 96, N-[4-(difluoromethoxy)phenyl]-N′-[4-(trifluoromethoxy)phenyl]urea] | < 2000
CC(C)Oc1ccc(NC(=O)Nc2ccc(OC(F)F)cc2)cc1 [Compound 97, N-[4-(difluoromethoxy)phenyl]-N′-(4-isopropoxyphenyl)urea] | < 2000
O=C(Nc1ccc(OC(F)F)cc1)Nc1cccc(-c2ccccc2)c1 [Compound 98, N-biphenyl-3-yl-N′-[4-(difluoromethoxy)phenyl]urea] | < 2000
O=C(Nc1ccc(OC(F)F)cc1)Nc1ccc(-c2ccccc2)cc1 [Compound 99, N-biphenyl-4-yl-N′-[4-(difluoromethoxy)phenyl]urea] | < 2000
COc1cc(NC(=O)Nc2ccc(OC(F)(F)F)cc2)ccc1OC(F)F [Compound 100, N-[4-(difluoromethoxy)-3-methoxyphenyl]-N′-[4-(trifluoromethoxy)phenyl]urea] | < 2000

Next, values leading:

IC50 [nM] | SMILES
< 2000 | O=C(Nc1ccc(OC(F)F)cc1)Nc1cccc(-c2cccnc2)c1 [Compound 63, N-[4-(difluoromethoxy)phenyl]-N′-(3-pyridin-3-ylphenyl)urea]
< 2000 | O=C(Nc1ccc(OC(F)F)cc1)Nc1cccc(-c2cncnc2)c1 [Compound 64, N-[4-(difluoromethoxy)phenyl]-N′-(3-pyrimidin-5-ylphenyl)urea]
< 2000 | O=C(Nc1ccc(OC(F)F)cc1)Nc1cccc(-c2cnccn2)c1 [Compound 65, N-[4-(difluoromethoxy)phenyl]-N′-(3-pyrazin-2-ylphenyl)urea]
< 2000 | O=C(Nc1ccc(OC(F)F)cc1)Nc1cccc(-c2ccc(C(F)(F)F)cn2)c1 [Compound 66, N-[4-(difluoromethoxy)phenyl]-N′-{3-[5-(trifluoromethyl)pyridin-2-yl]phenyl}urea]
< 2000 | O=C(Nc1ccc(OC(F)F)cc1)Nc1cccc(-c2ccc3ncccc3c2)c1 [Compound 67, N-[4-(difluoromethoxy)phenyl]-N′-(3-quinolin-6-ylphenyl)urea]
< 2000 | O=C(Nc1ccc(OC(F)F)cc1)Nc1cccc(-c2cncc3ccccc23)c1 [Compound 68, N-[4-(difluoromethoxy)phenyl]-N′-(3-isoquinolin-4-ylphenyl)urea]
< 2000 | O=C(Nc1ccc(OC(F)F)cc1)Nc1cccc(-c2cnc3ccccc3c2)c1 [Compound 69, N-[4-(difluoromethoxy)phenyl]-N′-(3-quinolin-3-ylphenyl)urea]
< 2000 | Cc1ccc2cc(-c3cccc(NC(=O)Nc4ccc(OC(F)F)cc4)c3)ccc2n1 [Compound 70]
< 2000 | O=C(Nc1ccc(OC(F)F)cc1)Nc1cccc(-c2nccs2)c1 [Compound 71]
< 2000 | COc1ccc(-c2cccc(NC(=O)Nc3ccc(OC(F)F)cc3)c2)cn1 [Compound 72]
< 2000 | N#Cc1cncc(-c2cccc(NC(=O)Nc3ccc(OC(F)F)cc3)c2)c1 [Compound 73, N-[3-(5-cyanopyridin-3-yl)phenyl]-N′-[4-(difluoromethoxy)phenyl]urea]
< 2000 | O=C(Nc1ccc(OC(F)F)cc1)Nc1cccc(-c2ccc(Cl)cn2)c1 [Compound 74, N-[3-(5-chloropyridin-2-yl)phenyl]-N′-[4-(difluoromethoxy)phenyl]urea]
< 2000 | CCc1ccc(NC(=O)Nc2cccc(-c3ccc(Cl)cn3)c2)cc1 [Compound 75, N-[3-(5-chloropyridin-2-yl)phenyl]-N′-(4-ethylphenyl)urea]
< 2000 | O=C(Nc1ccc(OC(F)F)cc1)Nc1ccc(C(F)(F)F)nc1 [Compound 76, N-[4-(difluoromethoxy)phenyl]-N′-[6-(trifluoromethyl)pyridin-3-yl]urea]
< 2000 | O=C(Nc1ccc(OC(F)F)cc1)Nc1ccc(C(F)(F)F)cc1 [Compound 77, N-[4-(difluoromethoxy)phenyl]-N′-[4-(trifluoromethyl)phenyl]urea]
< 2000 | Cc1cc(NC(=O)Nc2ccc(OC(F)F)cc2)nc(C)n1 [Compound 78, N-[4-(difluoromethoxy)phenyl]-N′-(2,6-dimethylpyrimidin-4-yl)urea]
